Assay: Reversibility/recovery of pores by transepidermal water loss (TEWL)
Type: in vivo, hairless guinea pigs (HGP)
Details: following 7-day treatment with FLU in vivo
Excerpt: The reversibility/recovery of the pores following removal of occlusion was studied using transepidermal water loss (TEWL) in a HGP model. Five different sites were chosen on the dorsal region of an animal. […] All sites were marked and cleaned on the day of the treatment. […] The concentration and amount of NTX gel and FLU were consistent with the PK studies. A placebo gel was used for site 3 and site 4. The placebo gel was similar in composition to the NTX gel with 10% PG, 1% benzyl alcohol and 3% HEC as the gelling agent. […] All sites were occluded using a transdermal patch (148) secured in place with Bioclusive™ tape. […] All experiments were conducted at least in triplicate. Recovery of the skin, (i.e., regeneration of the barrier function of the SC) was studied using TEWL. These studies were carried out to look at the effect of the local concentration of FLU on the recovery/healing of the skin following removal of occlusion.

**Q.** With `CC(C)n1c(/C=C/C(O)CC(O)CC(=O)O)c(-c2ccc(F)cc2)c2ccccc21` (stereo not shown) [FLU, fluvastatin sodium] as the compound, how does the “time of recovery/healing of skin upon removal of occlusion” value read?
**A.** 45 min

— US10022366B2, “Extending and maintaining micropore viability of microneedle treated skin with lipid biosynthesis inhibitors for sustained drug delivery” (University of Maryland, Baltimore, priority 2013, dated 2018)
